{"source": "patent US10294202B2", "about": "“Pyrrolidinones as herbicides” (FMC Corporation, priority 2013, dated 2019)", "key": {"velvetleaf": {"tested_on": "velvetleaf", "assay": "Test C pre-/postemergence herbicide test", "format": "in vivo, Abutilon theophrasti", "settings": "Preemergence; for Velvetleaf plant response rating: 31 g ai/ha, scale 0 to 100, 0 is no effect and 100 is complete control", "in_short": "(§1)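 Visual rating, 0 (no effect) to 100 (complete control), versus untreated controls after 13 to 15 days in the greenhouse. Pre: seeds in loam/sand, sprayed at planting. Post: 1- to 4-leaf plants (2 to 18 cm) in peat-based mix. Compounds in non-phytotoxic solvent plus surfactant.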"}, "pigweed": {"tested_on": "pigweed", "assay": "Test A pre-/postemergence herbicide test", "format": "in vivo, Amaranthus retroflexus", "settings": "for Pigweed plant response rating: Preemergence, visual rating on 0 to 100 scale (0 no effect, 100 complete control)", "in_short": "(§2)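 Seeds sown in loam soil/sand blend received a preemergence directed soil spray of test chemical in non-phytotoxic solvent with surfactant; postemergence plants (2–10 cm, one- to two-leaf stage) were sprayed with the same formulation. After about 10 days in greenhouse, injury was rated visually versus untreated controls, 0 (no effect) to 100 (complete control).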"}, "oilseed rape": {"tested_on": "oilseed rape", "assay": "Test C pre-/postemergence herbicide test", "format": "in vivo, Brassica napus", "settings": "Preemergence", "in_short": "as §1"}, "rice": {"tested_on": "rice", "assay": "Test B flooded paddy test", "format": "in vivo, Oryza sativa", "settings": "250 g ai/ha, Flood; scale of 0 to 100 where 0 is no effect and 100 is complete control", "in_short": "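Plants were grown to the 2-leaf stage, then pots were flooded to 3 cm above the soil and compound was applied directly into the paddy water, with that depth held throughout. After 13 to 15 days in a greenhouse, injury was rated visually against untreated controls on a 0 to 100 scale (100 = complete control).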"}, "corn": {"tested_on": "corn", "assay": "Test A pre-/postemergence herbicide test", "format": "in vivo, Zea mays", "settings": "for Corn plant response rating: Preemergence, visual rating on 0 to 100 scale (0 no effect, 100 complete control)", "in_short": "as §2"}, "foxtail, giant": {"tested_on": "foxtail, giant", "assay": "Test C pre-/postemergence herbicide test", "format": "in vivo, Setaria faberii", "settings": "Preemergence; for Foxtail, Giant plant response rating: 31 g ai/ha, scale 0 to 100, 0 is no effect and 100 is complete control", "in_short": "as §1"}, "blackgrass": {"tested_on": "blackgrass", "assay": "Test C pre-/postemergence herbicide test", "format": "in vivo, Alopecurus myosuroides", "settings": "Preemergence; for Blackgrass plant response rating: 31 g ai/ha, scale 0 to 100, 0 is no effect and 100 is complete control", "in_short": "as §1"}, "johnsongrass": {"tested_on": "johnsongrass", "assay": "Test C pre-/postemergence herbicide test", "format": "in vivo, Sorghum halepense", "settings": "Preemergence; for Johnsongrass plant response rating: 31 g ai/ha, scale 0 to 100, 0 is no effect and 100 is complete control", "in_short": "as §1"}, "barnyardgrass": {"tested_on": "barnyardgrass", "assay": "Test A pre-/postemergence herbicide test", "format": "in vivo, Echinochloa crus-galli", "settings": "for Barnyardgrass plant response rating: Preemergence, visual rating on 0 to 100 scale (0 no effect, 100 complete control)", "in_short": "as §2"}, "giant foxtail": {"tested_on": "giant foxtail", "assay": "Test A pre-/postemergence herbicide test", "format": "in vivo, Setaria faberii", "settings": "for Foxtail, Giant plant response rating: Preemergence, visual rating on 0 to 100 scale (0 no effect, 100 complete control)", "in_short": "as §2"}, "nutsedge, yellow": {"tested_on": "nutsedge, yellow", "assay": "Test C pre-/postemergence herbicide test", "format": "in vivo, Cyperus esculentus", "settings": "Preemergence; for Nutsedge, Yellow plant response rating: 31 g ai/ha, scale 0 to 100, 0 is no effect and 100 is complete control", "in_short": "as §1"}, "[1]": {"settings": "125 g ai/ha, scale 0 to 100 (0 no effect, 100 complete control)"}, "[2]": {"settings": "Postemergence, 125 g ai/ha, 0 to 100 scale, 0 no effect, 100 complete control"}, "[3]": {"settings": "Postemergence, 500 g ai/ha, 0 to 100 scale (0 no effect, 100 complete control)"}, "[4]": {"settings": "preemergence, 500 g ai/ha, 0 to 100 scale"}, "[5]": {"settings": "preemergence, 500 g ai/ha, 0 to 100 scale (0 no effect, 100 complete control)"}, "[6]": {"settings": "250 g ai/ha, scale 0 to 100 (0 no effect, 100 complete control)"}}, "data": [{"compound": "O=C1NCC(c2ccc(F)c(C(F)(F)F)c2)C1C(=O)Nc1ccccc1C(F)(F)F", "note": "(racemic) [Compound 78]", "values": [{"measurement": "Velvetleaf plant response rating", "setting": "velvetleaf", "value": 15}, {"measurement": "Plant response rating, Velvetleaf", "setting": "velvetleaf; 62 g ai/ha, scale 0 to 100", "value": 15}, {"measurement": "Plant response rating, Velvetleaf", "setting": "velvetleaf; [1]", "value": 20}, {"measurement": "Plant response rating (scale of 0 to 100), Velvetleaf", "setting": "velvetleaf; 250 g ai/ha", "value": 20}, {"measurement": "Plant response rating, Pigweed", "setting": "pigweed; [2]", "value": 50}, {"measurement": "Plant response rating, Pigweed", "setting": "pigweed; [3]", "value": 50}, {"measurement": "Pigweed plant response rating", "setting": "pigweed; 125 g ai/ha", "value": 10}, {"measurement": "Plant response rating, Pigweed", "setting": "pigweed; [4]", "value": 60}, {"measurement": "Oilseed Rape plant response rating", "setting": "oilseed rape; 31 g ai/ha, scale 0 to 100, 0 is no effect and 100 is complete control", "value": 0}, {"measurement": "Plant response rating, Oilseed Rape", "setting": "oilseed rape; 62 g ai/ha, scale 0 to 100", "value": 10}, {"measurement": "Plant response rating, Oilseed Rape", "setting": "oilseed rape; [1]", "value": 10}, {"measurement": "Plant response rating (scale of 0 to 100), Oilseed Rape", "setting": "oilseed rape; 250 g ai/ha", "value": 75}, {"measurement": "Plant response rating, Rice", "setting": "rice", "value": 0}, {"measurement": "Plant response rating, Corn", "setting": "corn; [2]", "value": 20}, {"measurement": "Plant response rating, Corn", "setting": "corn; [3]", "value": 50}, {"measurement": "Corn plant response rating", "setting": "corn; 125 g ai/ha", "value": 0}, {"measurement": "Plant response rating, Corn", "setting": "corn; [4]", "value": 0}, {"measurement": "Foxtail, Giant plant response rating", "setting": "foxtail, giant", "value": 85}, {"measurement": "Plant response rating, Foxtail, Giant", "setting": "foxtail, giant; 62 g ai/ha, scale 0 to 100", "value": 95}, {"measurement": "Plant response rating, Foxtail, Giant", "setting": "foxtail, giant; [1]", "value": 95}, {"measurement": "Plant response rating (scale of 0 to 100), Foxtail, Giant", "setting": "foxtail, giant; 250 g ai/ha", "value": 98}, {"measurement": "Blackgrass plant response rating", "setting": "blackgrass", "value": 30}, {"measurement": "Plant response rating, Blackgrass", "setting": "blackgrass; 62 g ai/ha, scale 0 to 100", "value": 75}, {"measurement": "Plant response rating, Blackgrass", "setting": "blackgrass; [1]", "value": 75}, {"measurement": "Plant response rating (scale of 0 to 100), Blackgrass", "setting": "blackgrass; 250 g ai/ha", "value": 85}, {"measurement": "Johnsongrass plant response rating", "setting": "johnsongrass", "value": 0}, {"measurement": "Plant response rating, Johnsongrass", "setting": "johnsongrass; 62 g ai/ha, scale 0 to 100", "value": 0}, {"measurement": "Plant response rating, Johnsongrass", "setting": "johnsongrass; [1]", "value": 15}, {"measurement": "Plant response rating (scale of 0 to 100), Johnsongrass", "setting": "johnsongrass; 250 g ai/ha", "value": 60}, {"measurement": "Plant response rating, Barnyardgrass", "setting": "barnyardgrass; [2]", "value": 50}, {"measurement": "Plant response rating, Barnyardgrass", "setting": "barnyardgrass; [3]", "value": 70}, {"measurement": "Barnyardgrass plant response rating", "setting": "barnyardgrass; 125 g ai/ha", "value": 80}, {"measurement": "Plant response rating, Barnyardgrass", "setting": "barnyardgrass; [5]", "value": 90}, {"measurement": "Plant response rating, Foxtail, Giant", "setting": "giant foxtail; [2]", "value": 80}, {"measurement": "Plant response rating, Foxtail, Giant", "setting": "giant foxtail; [3]", "value": 80}, {"measurement": "Foxtail, Giant plant response rating", "setting": "giant foxtail; 125 g ai/ha", "value": 90}, {"measurement": "Plant response rating, Foxtail, Giant", "setting": "giant foxtail; [4]", "value": 90}, {"measurement": "Nutsedge, Yellow plant response rating", "setting": "nutsedge, yellow", "value": 0}, {"measurement": "Plant response rating, Nutsedge, Yellow", "setting": "nutsedge, yellow; 62 g ai/ha, scale 0 to 100", "value": 0}, {"measurement": "Plant response rating, Nutsedge, Yellow", "setting": "nutsedge, yellow; [1]", "value": 0}, {"measurement": "Plant response rating (scale of 0 to 100), Nutsedge, Yellow", "setting": "nutsedge, yellow; 250 g ai/ha", "value": 0}]}, {"compound": "O=C1NCC(c2cccc(OC(F)(F)F)c2)C1C(=O)Nc1cccc(F)c1F", "note": "(stereo not drawn) [Compound 68]", "values": [{"measurement": "Velvetleaf plant response rating", "setting": "velvetleaf", "value": 10}, {"measurement": "Plant response rating, Velvetleaf", "setting": "velvetleaf; 62 g ai/ha, scale 0 to 100", "value": 10}, {"measurement": "Plant response rating, Velvetleaf", "setting": "velvetleaf; [1]", "value": 10}, {"measurement": "Plant response rating, Pigweed", "setting": "pigweed; [2]", "value": 40}, {"measurement": "Plant response rating, Pigweed", "setting": "pigweed; [3]", "value": 60}, {"measurement": "Pigweed plant response rating", "setting": "pigweed; 125 g ai/ha", "value": 0}, {"measurement": "Plant response rating, Pigweed", "setting": "pigweed; [4]", "value": 30}, {"measurement": "Plant response rating, Rice", "setting": "rice", "value": 25}, {"measurement": "Plant response rating, Corn", "setting": "corn; [2]", "value": 20}, {"measurement": "Plant response rating, Corn", "setting": "corn; [3]", "value": 90}, {"measurement": "Corn plant response rating", "setting": "corn; 125 g ai/ha", "value": 0}, {"measurement": "Plant response rating, Corn", "setting": "corn; [4]", "value": 0}, {"measurement": "Foxtail, Giant plant response rating", "setting": "foxtail, giant", "value": 85}, {"measurement": "Plant response rating, Foxtail, Giant", "setting": "foxtail, giant; 62 g ai/ha, scale 0 to 100", "value": 90}, {"measurement": "Plant response rating, Foxtail, Giant", "setting": "foxtail, giant; [1]", "value": 90}, {"measurement": "Plant response rating, Foxtail, Giant", "setting": "foxtail, giant; [6]", "value": 95}, {"measurement": "Blackgrass plant response rating", "setting": "blackgrass", "value": 0}, {"measurement": "Plant response rating, Blackgrass", "setting": "blackgrass; 62 g ai/ha, scale 0 to 100", "value": 60}, {"measurement": "Plant response rating, Blackgrass", "setting": "blackgrass; [1]", "value": 60}, {"measurement": "Plant response rating, Blackgrass", "setting": "blackgrass; [6]", "value": 80}, {"measurement": "Johnsongrass plant response rating", "setting": "johnsongrass", "value": 0}, {"measurement": "Plant response rating, Johnsongrass", "setting": "johnsongrass; 62 g ai/ha, scale 0 to 100", "value": 35}, {"measurement": "Plant response rating, Johnsongrass", "setting": "johnsongrass; [1]", "value": 40}, {"measurement": "Plant response rating, Barnyardgrass", "setting": "barnyardgrass; [2]", "value": 70}, {"measurement": "Plant response rating, Barnyardgrass", "setting": "barnyardgrass; [3]", "value": 80}, {"measurement": "Barnyardgrass plant response rating", "setting": "barnyardgrass; 125 g ai/ha", "value": 80}, {"measurement": "Plant response rating, Barnyardgrass", "setting": "barnyardgrass; [5]", "value": 90}, {"measurement": "Plant response rating, Foxtail, Giant", "setting": "giant foxtail; [2]", "value": 80}, {"measurement": "Plant response rating, Foxtail, Giant", "setting": "giant foxtail; [3]", "value": 80}, {"measurement": "Foxtail, Giant plant response rating", "setting": "giant foxtail; 125 g ai/ha", "value": 90}, {"measurement": "Plant response rating, Foxtail, Giant", "setting": "giant foxtail; [4]", "value": 90}, {"measurement": "Nutsedge, Yellow plant response rating", "setting": "nutsedge, yellow", "value": 10}, {"measurement": "Plant response rating, Nutsedge, Yellow", "setting": "nutsedge, yellow; 62 g ai/ha, scale 0 to 100", "value": 10}, {"measurement": "Plant response rating, Nutsedge, Yellow", "setting": "nutsedge, yellow; [1]", "value": 10}]}]}
